Source: US8865182B2 (priority 2009, dated 2014)

test system: human donor PBMC; format: cell-based

| Sequence | Recall |
| --- | --- |
| AGQISVQPTFSVQRN [SEQ ID NO: 26] | 5 |
| AMEVASQARQMVQAM [SEQ ID NO: 17] | 3 |
| DFALIVNAPNHEGIQ [SEQ ID NO: 50] | 3 |
| DLIFLARSALILRGS [SEQ ID NO: 23] | 4 |
| DPLVVAASIIGILHL [SEQ ID NO: 18] | 2 |
| EGAIVGEISPLPSLPGHTD [SEQ ID NO: 28] | 5 |
| EPFLKTTPRPLRLPD [SEQ ID NO: 36] | 2 |
| EYIMKGVYINTALLN [SEQ ID NO: 39] | 4 |
| FEQITFMQALQLLLE [SEQ ID NO: 32] | 1 |
| FLAMITYITRNQPEW [SEQ ID NO: 43] | 3 |
| FRNVLSIAPIMFSNKM [SEQ ID NO: 45] | 1 |
| GARILTSESQLTITK [SEQ ID NO: 56] | 2 |
| GVTVIKNNMINNDLGP [SEQ ID NO: 52] | 2 |
| IAPIMFSNKMARLGK [SEQ ID NO: 46] | 1 |
| IGRFYIQMCTELKLSDYEG (Influenza Virus) [SEQ ID NO: 20] | 4 |
| IKAVRGDLNFVNRAN [SEQ ID NO: 58] | 4 |
| IRPLLVEGTASLSPG [SEQ ID NO: 48] | 1 |
| IRWLIEEVRHRLRIT [SEQ ID NO: 31] | 4 |
| ISSMVEAMVSRARID [SEQ ID NO: 54] | 1 |
| ITFMQALQLLLEVEQ [SEQ ID NO: 33] | 1 |
| KAAMGLRISSSFSFG [SEQ ID NO: 57] | 3 |

test system: HLA-A3 supertype (A*0301, A*1101, A*3101, A*3301, A*6801); format: binding, human

| Sequence | # Alleles Bound |
| --- | --- |
| ALANTIEVFR (Influenza Virus) [SEQ ID NO: 226] | 3 |
| ALMEWLKTR (Influenza Virus) [SEQ ID NO: 73] | 5 |
| ALTLNTMTK (Influenza Virus) [SEQ ID NO: 229] | 2 |
| AQMALQLFIK (Influenza Virus) [SEQ ID NO: 237] | 2 |
| ASCMGLIYNR [SEQ ID NO: 74] | 4 |
| ASYKIFKIEK (Influenza Virus) [SEQ ID NO: 95] | 2 |
| ATTHSWIPK (Influenza Virus) [SEQ ID NO: 239] | 4 |
| ATTHSWIPKR (Influenza Virus) [SEQ ID NO: 240] | 2 |
| AVASGYDFER (Influenza Virus) [SEQ ID NO: 123] | 3 |
| FQLIPMISK (Influenza Virus) [SEQ ID NO: 182] | 2 |
| FSFGGFTFK [SEQ ID NO: 284] | 5 |
| FSFGGFTFKR (Influenza Virus) [SEQ ID NO: 285] | 5 |
| GTFDTVQIIK (Influenza Virus) [SEQ ID NO: 291] | 3 |
| GTFEFTSFFY [SEQ ID NO: 235] | 4 |
| GTFGPVHFR (Influenza Virus) [SEQ ID NO: 282] | 5 |
| GTMVMELIR (Influenza Virus) [SEQ ID NO: 121] | 3 |
| HIYYLEKANK (Influenza Virus) [SEQ ID NO: 178] | 4 |
| HQLLRHFQK (Influenza Virus) [SEQ ID NO: 288] | 3 |
| IQNSITIER (Influenza Virus) [SEQ ID NO: 117] | 2 |
| ITGFAPFSK (Influenza Virus) [SEQ ID NO: 93] | 3 |
| ITGWAIFSK (Influenza Virus) [SEQ ID NO: 94] | 3 |
| KFFPSSSYR (Influenza Virus) [SEQ ID NO: 243] | 4 |
| KFLLMDALK (Influenza Virus) [SEQ ID NO: 179] | 2 |
| KFLPDLYDYK (Influenza Virus) [SEQ ID NO: 177] | 2 |

| Sequence | # Alleles Bound |
| --- | --- |
| KIPKTKNMKK (Influenza Virus) [SEQ ID NO: 181] | 2 |
| KLLLIVQALR (Influenza Virus) [SEQ ID NO: 188] | 3 |
| KLVGINMSK (Influenza Virus) [SEQ ID NO: 233] | 2 |
| KLVGINMSKK (Influenza Virus) [SEQ ID NO: 234] | 2 |
| KQIVERILK (Influenza Virus) [SEQ ID NO: 145] | 2 |
| KTNLYGFIIK [SEQ ID NO: 183] | 4 |
| KVYKTYFEK [SEQ ID NO: 281] | 3 |
| LFFKCIYRR (Influenza Virus) [SEQ ID NO: 83] | 4 |
| LLPFAAAPPK (Influenza Virus) [SEQ ID NO: 292] | 4 |
| LQLFIKDYR (Influenza Virus) [SEQ ID NO: 238] | 3 |
| MITQFESLK [SEQ ID NO: 156] | 3 |
| MQGSTLPRR (Influenza Virus) [SEQ ID NO: 120] | 2 |
| MTKEFFENK (Influenza Virus) [SEQ ID NO: 186] | 5 |
| MVLSAFDER [SEQ ID NO: 118] | 4 |
| MVMELIRMIK (Influenza Virus) [SEQ ID NO: 122] | 4 |
| MVTQRTIGK (Influenza Virus) [SEQ ID NO: 227] | 4 |
| MVTQRTIGKK (Influenza Virus) [SEQ ID NO: 228] | 3 |
| NLYGFIIKGR (Influenza Virus) [SEQ ID NO: 184] | 4 |
| QTYDWTLNR (Influenza Virus) [SEQ ID NO: 225] | 4 |
| RIMEMIPER (Influenza Virus) [SEQ ID NO: 277] | 4 |
| RLFFKCIYR (Influenza Virus) [SEQ ID NO: 81] | 5 |
| RLFFKCIYRR [SEQ ID NO: 82] | 5 |
| RTFFGWKEPY (Influenza Virus) [SEQ ID NO: 180] | 3 |
| SFGGFTFKR (Influenza Virus) [SEQ ID NO: 286] | 4 |

| Sequence | # Alleles Bound |
| --- | --- |
| SFSFGGFTFK (Influenza Virus) [SEQ ID NO: 283] | 5 |
| SIAPIMFSNK (Influenza Virus) [SEQ ID NO: 231] | 4 |
| SICNTTGVEK (Influenza Virus) [SEQ ID NO: 176] | 4 |
| SINELSNLAK (Influenza Virus) [SEQ ID NO: 294] | 3 |
| SLMQGSTLPR (Influenza Virus) [SEQ ID NO: 119] | 4 |
| SQDPTMLYNK (Influenza Virus) [SEQ ID NO: 290] | 2 |
| STVHYPKVYK (Influenza Virus) [SEQ ID NO: 279] | 4 |
| SVQPTFSVQR (Influenza Virus) [SEQ ID NO: 124] | 4 |
| SVQRNLPFER [SEQ ID NO: 126] | 4 |
| TFEFTSFFYR (Influenza Virus) [SEQ ID NO: 236] | 4 |
| TIGECPKYVK (Influenza Virus) [SEQ ID NO: 66] | 1 |
| TLARSICEK (Influenza Virus) [SEQ ID NO: 230] | 3 |
| TQFESLKLYR (Influenza Virus) [SEQ ID NO: 157] | 3 |
| TTSTVHYPK (Influenza Virus) [SEQ ID NO: 278] | 5 |
| TTVDHMAIIK (Influenza Virus) [SEQ ID NO: 275] | 2 |
| TVDHMAIIK (Influenza Virus) [SEQ ID NO: 276] | 2 |
| TVHYPKVYK (Influenza Virus) [SEQ ID NO: 280] | 5 |
| VLRGFLILGK (Influenza Virus) [SEQ ID NO: 293] | 3 |
| VLTGNLQTLK (Influenza Virus) [SEQ ID NO: 287] | 2 |
| VQPTFSVQR (Influenza Virus) [SEQ ID NO: 125] | 3 |
| VVFCGTSGTY (Influenza Virus) [SEQ ID NO: 96] | 2 |
| VVSIDRFLR (Influenza Virus) [SEQ ID NO: 289] | 4 |
| YQKCCNLFEK (Influenza Virus) [SEQ ID NO: 242] | 2 |
| YQKCCTLFEK (Influenza Virus) [SEQ ID NO: 241] | 2 |

test system: HLA class II molecules (HLA-DRB1*0101, *0301, *0401, *0404, *0405, *0701, *0802, *0901, *1101, *1302, *1501, HLA-DRB4*0101, HLA-DRB5*0101); format: binding, human

| Sequence | # Alleles Bound |
| --- | --- |
| AGQISVQPTFSVQRN [SEQ ID NO: 26] | 10 |
| AMEVASQARQMVQAM [SEQ ID NO: 17] | 8 |
| CPKYVKSNRLVLATGL [SEQ ID NO: 7] | 12 |
| DFALIVNAPNHEGIQ [SEQ ID NO: 50] | 11 |
| DLIFLARSALILRGS [SEQ ID NO: 23] | 12 |
| DPLVVAASIIGILHL [SEQ ID NO: 18] | 6 |
| EGAIVGEISPLPSLPGHTD [SEQ ID NO: 28] | 8 |
| ELLVLMENERTLDFHDS [SEQ ID NO: 9] | 8 |
| EPFLKTTPRPLRLPD [SEQ ID NO: 36] | 10 |
| EYIMKGVYINTALLN [SEQ ID NO: 39] | 7 |
| FEQITFMQALQLLLE [SEQ ID NO: 32] | 10 |
| FLAMITYITRNQPEW [SEQ ID NO: 43] | 11 |
| FRNVLSIAPIMFSNKM [SEQ ID NO: 45] | 12 |
| GARILTSESQLTITK [SEQ ID NO: 56] | 8 |
| GVTVIKNNMINNDLGP [SEQ ID NO: 52] | 8 |
| IAPIMFSNKMARLGK [SEQ ID NO: 46] | 10 |
| IGRFYIQMCTELKLSDYEG (Influenza Virus) [SEQ ID NO: 20] | 12 |

| Sequence | # Alleles Bound |
| --- | --- |
| IKAVRGDLNFVNRAN [SEQ ID NO: 58] | 9 |
| ILSIYSTVASSLALAI [SEQ ID NO: 12] | 12 |
| IRPLLVEGTASLSPG [SEQ ID NO: 48] | 10 |
| IRWLIEEVRHRLRIT [SEQ ID NO: 31] | 7 |
| ISGVKLESIGIYQILSI [SEQ ID NO: 10] | 10 |
| ISSMVEAMVSRARID [SEQ ID NO: 54] | 8 |
| ITFMQALQLLLEVEQ [SEQ ID NO: 33] | 10 |
| IYQILSIYSTVASSLA [SEQ ID NO: 11] | 13 |
| KAAMGLRISSSFSFG [SEQ ID NO: 57] | 13 |
| KSSFFRNVVWLIKKN [SEQ ID NO: 2] | 12 |
| MEKIVLLFAIVSLVKSD [SEQ ID NO: 1] | 6 |
| NRLVLATGLRNSPQR [SEQ ID NO: 8] | 10 |
| PTTYISVGTSTLNQRL [SEQ ID NO: 4] | 9 |
| RMEFFWTILKPNDAI [SEQ ID NO: 5] | 10 |
| VVWLIKKNSTYPTIKR [SEQ ID NO: 3] | 9 |
| WTILKPNDAINFESN [SEQ ID NO: 6] | 8 |
